Assay results published in publication PMC13489962, “Small-molecule modulation of β-arrestins” (Nature, 2026).

Assays:
βARR1 C251A = biological target: T1, βARR1 C251A (Rattus norvegicus, UniProt P29066, C251A); experiment: ITC binding to βARR1 mutant C251A
T1 construct: βARR1 or βARR2 construct, with their C terminus truncated (at amino acid 393 or 394, respectively); GST (pGEX4T1) (N, cleaved yes); made in house; host or cells: E. coli BL21 (DE3) pLysS
Experimental: (§1) The expression and purification of β-arrestins have been described previously[44],[62]–[64]. In brief, E. coli BL21 (DE3) pLysS cells (New England Biolabs: C2527I) carrying pGEX4T1-Rattus norvegicus βARR1 or βARR2 construct, with their C terminus truncated (at amino acid 393 or 394, respectively), were cultured in Terrific Broth (Teknova) medium at 37 °C. After OD600 reached 0.6–0.8, the cells were induced with 0.1 mM isopropyl-β-D-thiogalactopyranoside (IPTG) at 18 °C overnight. Bacteria were collected by centrifugation (4,000 rpm), and cell pellets were resuspended in lysis buffer (20 mM HEPES, pH 8, 150 mM NaCl, 10% glycerol, 1 mM EDTA, 0.2 mM dithiothreitol (DTT), 1 mM phenylmethylsulfonyl fluoride, and 1 mM benzamidine) at 4 °C for 1 h. […] Eluted fractions were analysed by SDS–PAGE, pooled, concentrated using 30 kDa MWCO Amicon Ultra-15 Centrifugal Filter devices, flash-frozen in liquid nitrogen, and stored in aliquots at −80 °C. […] Protein concentrations for each protein were determined by ultraviolet absorption at 280 nm and extinction coefficients estimated using the ExPASy ProtParam tool[67].
(§2) ITC measurements were performed on a MicroCal iTC200 system at 25 °C. […] Protein concentrations were determined by spectrophotometry at 280 nm, using extinction coefficients calculated from each protein sequence via the ProtParam program. […]

βARR1 P133A = biological target: T2, βARR1 P133A (Rattus norvegicus, UniProt P29066, P133A); experiment: ITC binding to βARR1 mutant P133A; conditions: 25 °C
T2 construct: βARR1 or βARR2 construct, with their C terminus truncated (at amino acid 393 or 394, respectively); GST (pGEX4T1) (N, cleaved yes); made in house; host or cells: E. coli BL21 (DE3) pLysS
Experimental: as §1, §2

[1] = test system: βARR2 recruitment to β2V2R; experiment: PathHunter βARR2 recruitment to β2V2R in U2OS cells; assay type: cell-based; conditions: 50 μM (recruitment), 25 μM (internalization); n = 1–2; Reviewer Fig. R2
Experimental: β-Arrestin recruitment to the agonist-activated receptor (β2V2R) was measured using the DiscoveRx PathHunter β-arrestin assay, which uses enzyme fragment complementation. […] Upon agonist-induced recruitment of βARR2 to β2V2R, the β-gal fragments complement to form a functional enzyme, generating a measurable chemiluminescent signal. The signal intensity correlates directly with the extent of βARR2 recruitment. U2OS cells co-expressing β2V2R and βARR2 were plated at a density of 25,000 cells per well in white, clear-bottom 96-well plates 24 h before treatment. On the day of the experiment, cells were treated with either a single dose (50 μM) or varying concentrations of a specific β-arrestin modulator or vehicle control in Hanks’ balanced salt solution (HBSS) (Sigma-Aldrich) with 20 mM HEPES (pH 7.4) and 0.05% BSA. Cells were incubated at 37 °C, 5% CO2, and about 100% relative humidity for about 30 min, followed by stimulation with either 10 nM Iso or a serial dilution of Iso for 60 min at 37 °C. After agonist stimulation, PathHunter reagents were added, and cells were incubated for another 60 min at ambient temperature. Luminescence signals were measured using a CLARIOstar microplate reader (BMG Labtech).

T1 sequence (P29066 1-393 C251A): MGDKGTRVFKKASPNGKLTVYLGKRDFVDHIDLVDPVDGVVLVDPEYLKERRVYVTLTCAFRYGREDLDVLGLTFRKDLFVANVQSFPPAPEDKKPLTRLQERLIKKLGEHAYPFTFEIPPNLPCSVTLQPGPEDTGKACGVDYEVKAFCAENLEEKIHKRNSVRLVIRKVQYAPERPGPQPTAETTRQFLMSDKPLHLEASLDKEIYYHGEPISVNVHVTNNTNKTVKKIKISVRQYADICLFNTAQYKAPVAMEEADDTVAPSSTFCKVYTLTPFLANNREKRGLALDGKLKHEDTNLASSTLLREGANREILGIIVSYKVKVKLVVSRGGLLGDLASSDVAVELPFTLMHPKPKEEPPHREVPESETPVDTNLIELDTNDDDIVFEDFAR
T2 sequence (P29066 1-393 P133A): as the sequence (P29066 1-393 C251A) above, with P133A, A251C counted along it

## C=C1C(=O)[C@]23[C@H](O)[C@H]1CC[C@H]2[C@@]12CO[C@]3(O)[C@@H](O)[C@@H]1C(C)(C)CC[C@@H]2O [Cmpd-5, (1S,4aR,5S,6S,6aR,9S,11aS,11bS,14R)-1,5,6,14-tetrahydroxy−4,4-dimethyl-8-methylenedecahydro-1H-6,11b-(epoxymethano)-6a,9-methanocyclohepta[a]naphthalen-7(8H)-one]
βARR1 C251A
  Kd fold over WT, βARR1 C251A: 8.3 fold
βARR1 C251A; 25 °C
  Kd: 3000 ± 1000 nM
βARR1 P133A
  Kd: 1000 ± 400 nM
[1]
  inhibition across a full Iso dose range, βarr2 recruitment and receptor internalization: robust
